# pEC50: −log10 of the molar value. Like-named read-outs stand apart in the source and are kept apart here.
# How the values were obtained:
# P. aeruginosa DSM1117 = experiment: MIC, standard microdilution assay, growing P. aeruginosa; format: cell-based, Pseudomonas aeruginosa; details: Pseudomonas aeruginosa, DSM1117, P. aeruginosa
# In short: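 Medium: CA-MHB + 40 mM HEPES, pH 7.4 (UPEC, P. aeruginosa, S. aureus); LPM + 30 mM MES, pH 5.5 (UPEC, extra condition); TSB (S. flexneri). Microdilution format, n = 3.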
# non-growing UPEC CFT073 = experiment: Dilution-regrowth assay (screen, hit validation, dose-response) on stationary-phase UPEC; format: cell-based, Escherichia coli; details: Escherichia coli, E. coli, regrowth delay of non-growing bacteria, 24 h treatment, OD600 6 h after 2500-fold dilution, read-out: EC50
# In short: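 Regrowth (OD600 after 6 h, 37 °C) of diluted non-growing CFT073, following 24 h compound treatment of 24 h stationary cultures, defines activity relative to untreated control. Screen at 20 µM, validation at 20, 10, 5 µM (duplicates), dose–response in three biological replicates fitted by five-parameter logistic.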
# [1] = test system: non-growing S. aureus DSM2569; experiment: Dilution-regrowth assay (OD600, start-growth-time) on stationary-phase S. aureus; format: cell-based, Staphylococcus aureus; details: S. aureus
# Procedure: The cultures were grown and treated for 24 h in 1:4 CA-MHB (pH 7.4).
# This approach allowed us to capture the time when cultures reached a threshold optical density (start-growth-time, SGT[15]).
# The cultures were incubated for 24 h in non-baffled Erlenmeyer flasks at 37 °C with shaking at 200 rpm.
# For P. aeruginosa and S. aureus, dose–response analysis was conducted in 96-well plates with a 200 μl assay volume, following the procedure used for screening assay validation experiments. […] Stock solutions were prepared and stored according to the manufacturers’ instructions, then diluted in 10% DMSO before use. Cultures were incubated for 24 h in 1:4 diluted CA-MHB medium under the same conditions used for UPEC cultivation. In preliminary experiments, each compound was tested at a concentration of 20 μM in the dilution-regrowth assay with 4 technical replicates. Regrowth was monitored using a microplate reader at 37 °C with continuous shaking, and OD600 was recorded every 20 min. The time at which OD600 exceeded the threshold of 0.12 was recorded as the Start_Growth-Time.
# Statistical significance of the drug effects was assessed using a one-way ANOVA followed by Dunnett’s test, comparing each treatment to the drug-free control. Statistical significance of the differences in chemical characteristics between the hit compounds and the Prestwick library was assessed using a Mann–Whitney test. Statistical significance was set at P ≤ 0.05. A five-parameter logistic equation was used for asymmetric sigmoidal curve fitting and for EC50 and IC50 determination. The Venn diagram in Fig. 1F was prepared using BioVenn web application. Characteristics of the chemical and physical properties of Prestwick library compounds were obtained from Supplementary Table S1 from reference. Characteristics of the hit compounds not included in the Prestwick library were retrieved from the PubChem database.
smiles,measurement,setting,value
CN1CCN(c2cc3c(cc2F)c(=O)c(C(=O)O)cn3-c2ccc(F)cc2)CC1 [Difloxacin],MIC,"P. aeruginosa DSM1117; 1:4 diluted CA-MHB pH 7.4, read-out: MIC (μM) 1:4 CA-MHB",8 µM
same,MIC,"P. aeruginosa DSM1117; CA-MHB pH 7.4, read-out: MIC (μM) CA-MHB",8 µM
same,pEC50,non-growing UPEC CFT073; LPM pH 5.5,5.00
same,pEC50,"non-growing UPEC CFT073; pH 7.4, 1:4 CA-MHB",5.19
same,OD600 at 6h or 8h after dilution into drug-free medium (regrowth),[1]; drug conc 0.1,0.660
same,OD600 at 6h or 8h after dilution into drug-free medium (regrowth),[1]; drug conc 0.5,0.630
same,OD600 at 6h or 8h after dilution into drug-free medium (regrowth),[1]; drug conc 2.5,0.506
same,OD600 at 6h or 8h after dilution into drug-free medium (regrowth),[1]; drug conc 10,0.371
same,pEC50,"[1]; Staphylococcus aureus, DSM2569, regrowth delay of non-growing bacteria, 1:4 CA-MHB pH 7.4, 24 h treatment, OD600 8 h after dilution, read-out: EC50",5.53

# Source: article PMC11992225, “Antibacterial compounds against non-growing and intracellular bacteria” (npj Antimicrobials and Resistance, 2025)
